# In US8822519B2, “Compound with agitation effect on peroxisome proliferator-activated receptor process for its preparation and use thereof” (Zhejiang Hisun Pharmaceutical Co., Ltd., priority 2008, dated 2014):
# Legend:
# [1] = clinical research, Oliver et al. 2001; cited from earlier work
# PPARδ = biological target: T1, PPARδ (Homo sapiens, UniProt Q03181); assay: In vitro screening of nuclear receptor agonist: luciferase reporter gene assay in HepG2 cells; type: cell-based; settings: RXR/PPARδ luciferase reporter gene, 24 h treatment
# T1 construct: expressed in transfected cells; host or cells: HepG2 (human hepatocarcinoma, ATCC)
# T1 sequence (Q03181 1-441): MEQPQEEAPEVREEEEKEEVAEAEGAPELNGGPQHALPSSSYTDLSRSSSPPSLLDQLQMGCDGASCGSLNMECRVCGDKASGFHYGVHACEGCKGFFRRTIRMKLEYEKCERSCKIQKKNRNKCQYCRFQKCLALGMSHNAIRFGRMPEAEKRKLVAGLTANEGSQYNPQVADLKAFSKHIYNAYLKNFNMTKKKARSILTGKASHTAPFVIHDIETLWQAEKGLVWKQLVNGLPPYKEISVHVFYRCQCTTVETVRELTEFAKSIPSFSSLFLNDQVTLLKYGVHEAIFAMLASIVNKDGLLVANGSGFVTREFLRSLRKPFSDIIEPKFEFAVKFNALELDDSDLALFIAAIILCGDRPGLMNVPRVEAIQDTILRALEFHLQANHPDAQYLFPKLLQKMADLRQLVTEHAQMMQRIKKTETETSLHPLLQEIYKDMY
# T1 sequence (P19793 1-462 partner): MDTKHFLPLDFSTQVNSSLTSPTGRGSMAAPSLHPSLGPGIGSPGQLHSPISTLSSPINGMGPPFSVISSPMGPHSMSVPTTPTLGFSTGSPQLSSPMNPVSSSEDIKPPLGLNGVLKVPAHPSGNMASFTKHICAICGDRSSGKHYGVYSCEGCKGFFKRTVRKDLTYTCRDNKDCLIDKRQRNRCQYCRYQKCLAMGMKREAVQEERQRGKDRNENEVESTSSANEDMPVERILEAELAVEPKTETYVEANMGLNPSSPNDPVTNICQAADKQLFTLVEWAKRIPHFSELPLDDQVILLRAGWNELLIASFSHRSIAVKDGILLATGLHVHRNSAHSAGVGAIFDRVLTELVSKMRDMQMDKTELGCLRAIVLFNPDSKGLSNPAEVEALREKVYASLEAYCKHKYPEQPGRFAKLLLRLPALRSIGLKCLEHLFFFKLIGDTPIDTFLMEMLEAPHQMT
# Excerpt: Using a reporter gene protocol, the screening model for screening a nuclear receptor agonist in a living cell is designed on a basis of the principal that an activated nuclear receptor can activate transcription of its downstream gene. A reporter gene plasmid is constructed, in which the DNA binding sequence for the nuclear receptor (NRE) is inserted upstream of the luciferase gene, so that the expression of the luciferase gene is placed under the control of the nuclear receptor. Then, the reporter gene plasmid and the nuclear receptor are simultaneously transferred into a cell, and the nuclear receptor is activated when the nuclear receptor agonist is present in the cell culture medium. Then the activated receptor is able to induce the expression of the luciferase gene, while the amount of the luciferase can be determined through its luminous substrate. In this way, the intensity of activation by the compound on the nuclear receptor could be known by observing the luminescence intensity.
# The specific operation is described as follows:
# The experiment reagents: the compounds to be tested (20 mM, in DMSO, stored at −80° C.).
# The hepatocarcinoma cell HepG2 (from ATCC, American Type Culture Collection) was cultured in DMEM medium supplemented with 10% heat-inactivated fetal bovine serum (FBS, Invitogen, Grand Island, N.Y., USA) in a T-75 culture bottle (Greiner, Germany) in a incubator at 37° C., the relative humidity of 100%, and 5% CO2. When the cell culture in the culture bottle reached 80-90% confluency, it was digested with 0.25% Trypsin (with EDTA) for 3 min and inoculated into a 96-well cell culture plate at an inoculating density of 2000 cells/100 μl/well.
# In the next day, when the cells in the 96-well culture plate grew up to 50-80% confluency, cell transfection was performed. The cell co-transfection system comprised the FuGene6 transfection agent (Roche Molecular Biochemicals, Indianapolis, Ind., U.S.A.) and 60 ng DNA (long of hRXR, 10 ng of pCMV βGal, 10 ng of the nuclear receptor expression plasmid RXR/PPARδ, 30 ng of GFP fluorescence reporter gene plasmid, respectively).
# The cell culture medium was discarded immediately at 24 hours post-transfection and replaced by 200 μl of a fresh DMEM medium containing the medicament to be tested (with 10% FBS treated by activated carbon).
# 24 h after treatment with the medicament, the cells were lysed with a lysis solution (Cell Culture Lysis buffer, Promega) and centrifuged, and the supernatant was collected. The supernatant was treated with a fluorescence detection kit (Promega) and counted by a fluorescence meter (Ascent Fluoroskan FL reader, Thermo Labsystems, Finland), and the relative intensity of the luciferase was determined. For assaying the β-galactosidase activity used in the experiment as the inner reference (the inner reference calibrating for the transfection efficiency), 50 μl of the supernatant was transferred into a fresh microplate and treated with the Promega kit and read at a wavelength of 405 nm from a microplate reader (Bio-tech Instruments Inc., Winooski, Vt., USA) (Sauerberg, P.; Olsen, G. S.; Jeppesen, L.; Mogensen, J. P. et al., J. Med. Chem., 2007, 50, 1495-1503).
# The median effective concentration (EC50) of a sample is a concentration at which the sample has 50% pharmacological effect. This value is one of the important parameters for evaluating pharmacological effects of a compound. In the present screening process, the EC50 of a sample was calculated according to the activation of the receptor by the sample at six different concentrations.
# [2] = Pharmacokinetics: plasma concentration-time curve; type: in vivo; settings: both sexes, rat, plasma, oral, SD rats, gastric lavage, 50, 10 and 2 mg/kg
# Procedure: The dosing volume was 10 ml/kg, and blood samples of 0.4-0.5 ml were taken from the vena orbitalis posterior of the waken animals at different time points post-gastric lavage and centrifuged at 5000 rpm for 10 min. 200 μL of plasma sample was precisely measured, then supplemented with 200 μL acetonitrile, vortexed to evenness, left stand for 5 min, and centrifuged (14000 rpm, 5 min). The supernatant was collected and then centrifuged again (14000 rpm, 5 min). The resulting supernatant was gathered and subjected to HPLC injection. Time points for blood sampling were respectively: 0, 0.5, 1, 2, 4, 6, 8, 10, 12, 24, 36, 48 and 72 h, and the peak area for each time point was the average of those obtained from 6 rats at the same time point. Plasma concentrations were calculated and the medicament concentration-time curve was plotted.
# Tissue distribution = type: in vivo, SD rats
# Procedure: 18 of SD rats were fasting for 16 h with free access for water, assigned them into 3 groups with 6 animals/group with a female-to-male ratio of 1:1; they were dosed with HS060098 (10 mg/kg), then the animals were sacrificed at 1, 10, and 24 h after dosing, and the heart, liver, spleen, lung, kidney in each animal were removed rapidly. The tainted blood on the surface of the organ was washed off immediately with physiological saline. The tissue from the organ was dissected apart, washed thoroughly, blotted off, weighed, supplemented with physiological saline at 400 mg/ml, homogenized in an ice bath for 1 min, and centrifuged at 3750 rpm for 20 min. 400 μl of the supernatant was pipetted precisely, followed by addition of 40 μl of an inner standard (HS060001 used as the inner standard with a molar concentration of 5 mmol/L), diluted with 3 ml of purified water, vortexed to homogeneity, and loaded onto a column (SPE C18 column was firstly washed with 3 ml of purified water, and sequentially with 3 ml of 10% methanol for activation). The column was rinsed with 3 ml of purified water at 1 ml/min, and then eluted with 3 ml of a elutant (methanol: purified water=9:1). The eluate was collected and blow-dried under a nitrogen flow at 45° C. The residue was dissolved in 400 μl of acetonitrile and then a HPLC insert was placed and followed by injection of the sample.
# [3] = distribution in organs, SD rats, 10 mg/kg
smiles,measurement,setting,value
Cc1cc(SCc2sc(-c3ccc(C(F)(F)F)cc3)nc2C)ccc1OCC(=O)O [GW501516],decrease the level of insulin,[1],up to 48%
same,decrease the level of triglyceride (TG),[1],up to 56%
same,increase the level of high density lipoprotein (HDL) cholesterol,[1],up to 80%
same,lower the level of low density lipoprotein (LDL) cholesterol,[1],up to 29%
"Cc1cc(OC(c2ccccc2)c2nn(-c3ccc(C(F)(F)F)cc3)c(=O)n2C)ccc1OCC(=O)O (centres unmarked) [Compound A-1, 2-(2-methyl-4-(1-(3-(4-methyl-5-oxo-1-(4-trifluoromethyl-phenyl)-4,5-dihydrogen-1H-1,2,4-triazolyl))-benzyloxy)-phenoxy)-acetic acid]",EC50,PPARδ,468 nM
same,half-life,[2],1560 to 1680 min
same,bioavailability,[2]; read-out: bioavailability,15%
same,Heart,Tissue distribution; [3],6%
same,Kidney,Tissue distribution; [3],9%
same,Liver,Tissue distribution; [3],65%
same,Lung,Tissue distribution; [3],11%
same,Spleen,Tissue distribution; [3],9%
same,tissue distribution,Tissue distribution; in words,distribute mainly in liver
"Cc1cc(SC(c2ccccc2)c2nn(-c3ccc(C(F)(F)F)cc3)c(=O)n2C)c(C)cc1OCC(=O)O (centres unmarked) [Compound A-10, 2-(2,5-dimethyl-4-(1-(3-(4-methyl-5-oxo-1-(4-trifluoromethyl-phenyl)-4,5-dihydrogen-1H-1,2,4-triazolyl))-benzylthio)-phenoxy)-acetic acid]",EC50,PPARδ,100 nM
"Cc1cc(SCc2nn(-c3ccc(C(F)(F)F)cc3)c(=O)n2C)ccc1OCC(=O)O [Compound A-8, 2-(2-methyl-4-(3-(4-methyl-5-oxo-1-(4-trifluoromethyl-phenyl)-4,5-dihydrogen-1H-1,2,4-triazolyl)-methylthio)-phenoxy)-acetic acid]",EC50,PPARδ,3020 nM
CCCCn1c(C(Sc2ccc(OC(C)(C)C(=O)O)c(C)c2)c2ccccc2)nn(-c2ccc(C(F)(F)F)cc2)c1=O (centres unmarked) [Compound A-18],EC50,PPARδ,< 1 nM
"Cc1cc(OCc2nn(-c3ccc(C(F)(F)F)cc3)c(=O)n2C)ccc1OCC(=O)O [Compound A-9, 2-(2-methyl-4-(3-(4-methyl-5-oxo-1-(4-trifluoromethyl-phenyl)-4,5-dihydrogen-1H-1,2,4-triazolyl)-methoxy)-phenoxy)-acetic acid]",EC50,PPARδ,6610 nM
